Source: patent US8178575B2, “Derivatives of azabicyclo octane, the method of making them and the uses thereof as inhibitors of dipeptidyl peptidase IV” (Shanghai Hengrui Pharmaceutical Co., Ltd., priority 2007, dated 2012)
Where a name gives a salt, the structure may show the parent alone.

Tests used:
normal ICR mice = experiment: Oral glucose tolerance test in normal ICR mice; assay type: in vivo; settings: male ICR mice, 30 minutes after 2.5 g/kg glucose
Procedure: Normal male ICR mice were randomly grouped according to weights, 6 mice in each group. The groups included a blank control group as well as different doses of the treatment groups as follows:
Animals in each group had been fasted for 6 hours, and then pretreated with compounds or double distilled water by gavage respectively in single administration. 30 minutes later, animals were administered 2.5 g/kg glucose by gavage. Before administration and after administration of glucose at 30, 60 and 120 minuets, blood was taken to determine serum glucose levels.
Serum glucose is determined by glucose kit. 250 μl working enzyme solution was taken, and then 5 μl serum was added to the solution. A blank tube (5 μl double distilled water was added) and a standard tube (5 μl glucose standard solution was added) were established simultaneously, shaking respectively, and in 37° C. water bath for 20 minutes. The blank tube was tuned with, and then calorimetric assay was determined at OD505 nm. Serum glucose concentration (BG, mmol/l)=ODsample tube/ODstandard tube×5.55 Data Processing and Statistical Analysis: • 1. Mean±SD and Student-t test were used in data statistical analysis. • 2. The percentage of blood glucose decline in 30 minutes after sugar administration as well as the area under the curve (AUC) was calculated.

[1] = test system: type II diabetes KKAy mice; experiment: Oral glucose tolerance test in type II diabetes KKAy mice; assay type: in vivo
Procedure: Normal KKAy mice had been fasted for 6 hours, and then were randomly grouped according to weights and fasting blood glucose, 5 mice in each group. The groups included a blank control group as well as different doses of the treatment groups as follows:
30 minutes later, animals were administered 2.5 g/kg (female KKAy mice) or 1.5 g/kg (male KKAy mice) glucose by gavage. After administration of glucose at 30, 60 and 120 minuets, serum glucose levels were determined by Glucometer.
• 3. Mean±SD and Student-t test or Anova were used in data statistical analysis. • 4.

DPPIV = target: T1, DPPIV (Homo sapiens, UniProt P27487); experiment: Selective activity determination of DPPIV inhibitors, recombinant enzyme, fluorescence substrate; assay type: biochemical
T1 construct: made in house; host or cells: insect expression system
T1 sequence (P27487 whole entry): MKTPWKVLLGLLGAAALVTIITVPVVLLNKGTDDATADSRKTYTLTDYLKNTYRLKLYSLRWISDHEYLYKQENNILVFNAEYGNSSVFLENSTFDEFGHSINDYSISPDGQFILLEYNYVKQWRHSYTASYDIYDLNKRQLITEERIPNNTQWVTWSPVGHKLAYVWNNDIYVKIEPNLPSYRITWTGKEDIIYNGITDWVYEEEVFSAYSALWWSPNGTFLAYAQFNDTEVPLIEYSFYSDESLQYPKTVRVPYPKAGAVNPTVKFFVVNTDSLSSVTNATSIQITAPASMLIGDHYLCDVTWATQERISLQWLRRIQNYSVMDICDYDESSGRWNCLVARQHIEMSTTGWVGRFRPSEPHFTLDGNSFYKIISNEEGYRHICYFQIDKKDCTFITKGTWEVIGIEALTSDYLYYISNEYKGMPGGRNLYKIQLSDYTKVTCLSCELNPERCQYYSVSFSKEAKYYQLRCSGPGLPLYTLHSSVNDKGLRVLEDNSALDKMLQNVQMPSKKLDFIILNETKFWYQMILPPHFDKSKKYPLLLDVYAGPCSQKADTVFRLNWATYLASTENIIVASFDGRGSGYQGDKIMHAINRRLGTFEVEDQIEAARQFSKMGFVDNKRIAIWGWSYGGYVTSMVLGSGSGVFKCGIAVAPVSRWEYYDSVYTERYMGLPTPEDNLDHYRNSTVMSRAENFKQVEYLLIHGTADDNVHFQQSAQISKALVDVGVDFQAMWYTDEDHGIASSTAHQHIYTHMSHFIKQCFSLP
Text: (§1) It can cut off the first two amino acids in many of the N-peptide to change or lose its biological activity. Gene knockout animal and human experiments indicate that reducing DPPIV activity effectively and specifically in vivo can improve blood insulin content and lower blood sugar levels, so as to improve the symptoms of diabetes effectively.
(§2) By using the insect expression system, the recombinant proteins of DPPIV, DPP8, DPP9 and QPP had been obtained. The activities of the […] enzymes were detected by fluorescence Substrate. The inhibitory effects of compounds were evaluated by the effects of different compounds on inhibiting enzyme activities. Positive reference compound was LAF237.

QPP = target: T2, QPP (Homo sapiens, UniProt Q9UHL4); experiment: as above; assay type: biochemical; settings: recombinant protein from insect expression system
T2 construct: made in house; host or cells: insect expression system
Text: as §1, §2

FAP = target: T3, FAP (Homo sapiens, UniProt Q12884); experiment: Selective activity determination of DPPIV inhibitors, fluorescence substrate; assay type: biochemical
T3 sequence (Q12884 1-760): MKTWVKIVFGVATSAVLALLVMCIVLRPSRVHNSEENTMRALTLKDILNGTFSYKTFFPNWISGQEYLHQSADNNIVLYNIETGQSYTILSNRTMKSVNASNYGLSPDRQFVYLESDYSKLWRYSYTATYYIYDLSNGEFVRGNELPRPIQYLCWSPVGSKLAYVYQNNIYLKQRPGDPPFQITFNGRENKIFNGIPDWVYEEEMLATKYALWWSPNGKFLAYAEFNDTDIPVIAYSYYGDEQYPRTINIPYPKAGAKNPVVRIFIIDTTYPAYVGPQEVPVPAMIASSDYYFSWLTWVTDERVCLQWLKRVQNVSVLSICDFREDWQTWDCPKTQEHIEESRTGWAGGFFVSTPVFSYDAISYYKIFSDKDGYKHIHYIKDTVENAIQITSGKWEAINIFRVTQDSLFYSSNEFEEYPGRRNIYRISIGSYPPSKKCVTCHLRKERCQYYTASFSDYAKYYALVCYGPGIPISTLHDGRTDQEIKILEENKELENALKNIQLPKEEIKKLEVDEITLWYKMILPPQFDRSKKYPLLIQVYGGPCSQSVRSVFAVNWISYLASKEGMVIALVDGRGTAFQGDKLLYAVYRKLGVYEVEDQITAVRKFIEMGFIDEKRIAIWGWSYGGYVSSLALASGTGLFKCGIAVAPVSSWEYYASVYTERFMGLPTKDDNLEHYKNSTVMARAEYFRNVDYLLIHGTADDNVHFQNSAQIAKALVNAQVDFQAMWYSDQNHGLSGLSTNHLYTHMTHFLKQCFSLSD
Text: as §1, §2

[2] = Test 1, high dose (10 mg/kg by gavage)
[3] = Test 1, low dose (1 mg/kg by gavage)
[4] = Test 1, middle dose (3 mg/kg by gavage)
[5] = Test 2, high dose (10 mg/kg by gavage)
[6] = Test 2, low dose (1 mg/kg by gavage)
[7] = Test 2, middle dose (3 mg/kg by gavage)
[8] = female KKAy mice, 10 mg/kg by gavage, 30 minutes after 2.5 g/kg glucose
[9] = male KKAy mice, 10 mg/kg by gavage, 30 minutes after 1.5 g/kg glucose
[10] = male KKAy mice, 30 mg/kg by gavage, 30 minutes after 1.5 g/kg glucose

Compound	percentage of blood glucose decreased vs control group (normal ICR mice; [2]) [%]	percentage of blood glucose decreased vs control group (normal ICR mice; [3]) [%]	percentage of blood glucose decreased vs control group (normal ICR mice; [4]) [%]	percentage of blood glucose decreased vs control group (normal ICR mice; [5]) [%]	percentage of blood glucose decreased vs control group (normal ICR mice; [6]) [%]	percentage of blood glucose decreased vs control group (normal ICR mice; [7]) [%]	percentage of blood glucose decreased vs control group ([1]; female KKAy mice, 3 mg/kg by gavage, 30 minutes after 2.5 g/kg glucose) [%]	percentage of blood glucose decreased vs control group [1, 8] [%]	percentage of blood glucose decreased vs control group [1, 9] [%]	percentage of blood glucose decreased vs control group [1, 10] [%]	IC50 (DPPIV) [nM]	IC50 (QPP) [nM]	IC50 (FAP) [nM]
CN(C)C(=O)N1C[C@H]2C[C@@H](NCC(=O)N3CCC[C@H]3C#N)C[C@H]2C1 (relative stereo) [Example 1, cis-5-[2-(2-Cyano-pyrrolidin-1-yl)-2-oxo-ethylamino]-hexahydro-cyclopenta[c]pyrrole-2-carboxylic acid dimethylamide hydrochloride]	31.85	19.16	22.85	32.05	26.10	30.24	40.63	24.68	16.22	17.15	–	–	–
COC(=O)N1C[C@H]2C[C@@H](NCC(=O)N3CCC[C@H]3C#N)C[C@H]2C1 (relative stereo) [Example 2, cis-5-[2-(2-Cyano-pyrrolidin-1-yl)-2-oxo-ethylamino]-hexahydro-cyclopenta[c]pyrrole-2-carboxylic acid methyl ester hydrochloride]	26.93	25.54	25.92	27.75	24.51	26.96	–	21.55	13.79	12.23	98 ± 36.4	> 56000	476 ± 112
